Laboratory results taken from ChEMBL document CHEMBL2429833, “A new class of bactericidal agents against S. aureus, MRSA and VRE derived from bisindolylmethane” (Med Chem Res, 2013).
Converted amounts (≈) assume the structure as drawn. The source made the active and inactive calls. The rule behind the calls is not given here.

Legend:
[1] = tested on: Staphylococcus aureus; assay: Bactericidal activity against Staphylococcus aureus ATCC 29213 after 24 hrs; format: functional; details: ATCC 29213, 24 h
[2] = tested on: Staphylococcus aureus; assay: Bactericidal activity against methicillin-resistant Staphylococcus aureus after 24 hrs; format: functional
[3] = tested on: Staphylococcus aureus; assay: Antibacterial activity against Staphylococcus aureus ATCC 29213 after 24 hrs by microdilution method; format: functional; details: ATCC 29213, 24 h
[4] = tested on: Enterococcus faecalis; assay: Antibacterial activity against vancomycin-resistant Enterococcus faecalis after 24 hrs by microdilution method; format: functional
[5] = tested on: Staphylococcus aureus; assay: Antibacterial activity against methicillin-resistant Staphylococcus aureus after 24 hrs by microdilution method; format: functional
[6] = tested on: Escherichia coli; assay: Antibacterial activity against Escherichia coli ATCC 25922 after 24 hrs by microdilution method; format: functional, organism-based
[7] = tested on: Pseudomonas aeruginosa; assay: Antibacterial activity against Pseudomonas aeruginosa ATCC 27853 after 24 hrs by microdilution method; format: functional, organism-based
[8] = tested on: Enterococcus faecalis; assay: Bactericidal activity against vancomycin-resistant Enterococcus faecalis after 24 hrs; format: functional

SMILES	MBC [1] [µg/mL]	MBC [2] [µg/mL]	MIC [3] [µg/mL]	MIC [4] [µg/mL]	MIC [5] [µg/mL]	Activity [6]	Activity [7]	MBC [8] [µg/mL]
Brc1ccc2[nH]cc(C(c3c[nH]c4ccc(Br)cc34)C3CCCCC3)c2c1	32 (≈ 65.8 µM)	32 (≈ 65.8 µM)	16 (≈ 32.9 µM)	32 (≈ 65.8 µM)	32 (≈ 65.8 µM)	inactive	inactive	32 (≈ 65.8 µM)
CCCC(c1c[nH]c2ccc(Br)cc12)c1c[nH]c2ccc(Br)cc12			> 256	> 256	> 256	inactive	inactive	
CCOc1ccc2c(c1)OC(C)(C)CC2(c1c[nH]c2ccc(Br)cc12)c1c[nH]c2ccc(Br)cc12	8 (≈ 13.5 µM)	32 (≈ 53.8 µM)	8 (≈ 13.5 µM)	32 (≈ 53.8 µM)	32 (≈ 53.8 µM)	inactive	inactive	32 (≈ 53.8 µM)
O=[N+]([O-])c1ccc2[nH]cc(C(c3ccc(F)cc3)c3c[nH]c4ccc([N+](=O)[O-])cc34)c2c1			> 256	> 256	> 256	inactive	inactive	
COc1ccc(C(c2c[nH]c3ccc(Br)cc23)c2c[nH]c3ccc(Br)cc23)cc1	32 (≈ 62.7 µM)	32 (≈ 62.7 µM)	16 (≈ 31.4 µM)	32 (≈ 62.7 µM)	32 (≈ 62.7 µM)	inactive	inactive	32 (≈ 62.7 µM)
Brc1ccc(C(c2c[nH]c3ccc(Br)cc23)c2c[nH]c3ccc(Br)cc23)cc1	16 (≈ 28.6 µM)	64 (≈ 114 µM)	8 (≈ 14.3 µM)	64 (≈ 114 µM)	32 (≈ 57.2 µM)	inactive	inactive	64 (≈ 114 µM)
COc1ccc(C(c2c[nH]c3ccc(Br)cc23)c2c[nH]c3ccc(Br)cc23)c(OC)c1			256 (≈ 474 µM)	> 256	256 (≈ 474 µM)	inactive	inactive	
COc1ccc2c(c1)OC(C)(C)CC2(c1c[nH]c2ccc(Br)cc12)c1c[nH]c2ccc(Br)cc12	4 (≈ 6.89 µM)	8 (≈ 13.8 µM)	4 (≈ 6.89 µM)	8 (≈ 13.8 µM)	4 (≈ 6.89 µM)	inactive	inactive	8 (≈ 13.8 µM)
Brc1ccc2[nH]cc(C(c3ccccc3)c3c[nH]c4ccc(Br)cc34)c2c1			256 (≈ 533 µM)	256 (≈ 533 µM)	256 (≈ 533 µM)	inactive	inactive	
CCCCCCCCC(c1c[nH]c2ccc(Br)cc12)c1c[nH]c2ccc(Br)cc12			> 256	> 256	> 256	inactive	inactive	
c1ccc(C(c2c[nH]c3ccccc23)c2c[nH]c3ccccc23)cc1			> 256	> 256	> 256	inactive	inactive	
Clc1ccc(C(c2c[nH]c3ccc(Br)cc23)c2c[nH]c3ccc(Br)cc23)cc1	4 (≈ 7.77 µM)	8 (≈ 15.5 µM)	4 (≈ 7.77 µM)	8 (≈ 15.5 µM)	8 (≈ 15.5 µM)	inactive	inactive	8 (≈ 15.5 µM)
O=[N+]([O-])c1ccc(C(c2c[nH]c3ccc(Br)cc23)c2c[nH]c3ccc(Br)cc23)cc1	4 (≈ 7.62 µM)	8 (≈ 15.2 µM)	4 (≈ 7.62 µM)	8 (≈ 15.2 µM)	8 (≈ 15.2 µM)	inactive	inactive	8 (≈ 15.2 µM)
CC(c1ccccc1)(c1c[nH]c2ccc(Br)cc12)c1c[nH]c2ccc(Br)cc12			> 256	> 256	> 256	inactive	inactive	
CN(C)c1ccc(C(c2c[nH]c3ccc(Br)cc23)c2c[nH]c3ccc(Br)cc23)cc1			64 (≈ 122 µM)	256 (≈ 489 µM)	128 (≈ 245 µM)	inactive	inactive	
COc1ccc(Br)cc1C(c1c[nH]c2ccc(Br)cc12)c1c[nH]c2ccc(Br)cc12			128 (≈ 217 µM)	256 (≈ 435 µM)	256 (≈ 435 µM)	inactive	inactive	
Brc1ccc2[nH]cc(C(c3ccc4ccccc4c3)c3c[nH]c4ccc(Br)cc34)c2c1	16 (≈ 30.2 µM)	32 (≈ 60.3 µM)	16 (≈ 30.2 µM)	32 (≈ 60.3 µM)	32 (≈ 60.3 µM)	inactive	inactive	32 (≈ 60.3 µM)
O=[N+]([O-])c1ccc2[nH]cc(C(c3ccc(O)cc3)c3c[nH]c4ccc([N+](=O)[O-])cc34)c2c1	1 (≈ 2.33 µM)	1 (≈ 2.33 µM)	1 (≈ 2.33 µM)	2 (≈ 4.67 µM)	1 (≈ 2.33 µM)	inactive	inactive	2 (≈ 4.67 µM)
CCCCCCCC(c1c[nH]c2ccc(Br)cc12)c1c[nH]c2ccc(Br)cc12			> 256	> 256	> 256	inactive	inactive	
CC(C)(c1c[nH]c2ccc(Br)cc12)c1c[nH]c2ccc(Br)cc12			> 256	> 256	> 256	inactive	inactive	
N#Cc1ccc2[nH]cc(C(c3ccc(F)cc3)c3c[nH]c4ccc(C#N)cc34)c2c1	1 (≈ 2.56 µM)	1 (≈ 2.56 µM)	1 (≈ 2.56 µM)	8 (≈ 20.5 µM)	1 (≈ 2.56 µM)	inactive	inactive	8 (≈ 20.5 µM)
N#Cc1ccc2[nH]cc(C(c3ccc(O)cc3)c3c[nH]c4ccc(C#N)cc34)c2c1			> 256	> 256	> 256	inactive	inactive	
Oc1ccc(C(c2c[nH]c3ccc(Br)cc23)c2c[nH]c3ccc(Br)cc23)cc1	0.5 (≈ 1.01 µM)	1 (≈ 2.02 µM)	0.5 (≈ 1.01 µM)	2 (≈ 4.03 µM)	1 (≈ 2.02 µM)	inactive	inactive	2 (≈ 4.03 µM)
Oc1cccc(C(c2c[nH]c3ccc(Br)cc23)c2c[nH]c3ccc(Br)cc23)c1	1 (≈ 2.02 µM)	2 (≈ 4.03 µM)	1 (≈ 2.02 µM)	4 (≈ 8.06 µM)	2 (≈ 4.03 µM)	inactive	inactive	8 (≈ 16.1 µM)
COc1ccc(C(c2c[nH]c3ccc(Br)cc23)c2c[nH]c3ccc(Br)cc23)cc1OC			128 (≈ 237 µM)	256 (≈ 474 µM)	256 (≈ 474 µM)	inactive	inactive	
O=C(O)c1cn(C2CC2)c2cc(N3CCNCC3)c(F)cc2c1=O [CIPROFLOXACIN]	0.5 (≈ 1.51 µM)	32 (≈ 96.6 µM)	0.25 (≈ 0.754 µM)	64 (≈ 193 µM)				64 (≈ 193 µM)
CC1(C)CC(c2c[nH]c3ccc(Br)cc23)(c2c[nH]c3ccc(Br)cc23)c2ccc(O)cc2O1	2 (≈ 3.53 µM)	2 (≈ 3.53 µM)	2 (≈ 3.53 µM)	4 (≈ 7.06 µM)	2 (≈ 3.53 µM)	inactive	inactive	4 (≈ 7.06 µM)
COc1cccc(C(c2c[nH]c3ccc(Br)cc23)c2c[nH]c3ccc(Br)cc23)c1OC			256 (≈ 474 µM)	> 256	256 (≈ 474 µM)	inactive	inactive	
COc1ccc(OC)c(C(c2c[nH]c3ccc(Br)cc23)c2c[nH]c3ccc(Br)cc23)c1			128 (≈ 237 µM)	> 256	256 (≈ 474 µM)	inactive	inactive	
